Measurements: paper PMC7932537, “Quantitative profiling of protease specificity” (PLoS Computational Biology, 2021)

What was measured:
[1] = system: MMP-9; experiment: Substrate phage display with NGS: relative probability (RP) of P3-P1' tetramer clusters; format: biochemical, human; settings: for MMP9 relative probability (RP): MMP9 tetramers from unique substrates, unrounded values; for corresponding MMP9 relative probability (RP): MMP2 tetramers from unique substrates, RP of same tetramer for MMP9
[2] = system: MMP-2; experiment: as above; format: biochemical, human; settings: for relative probability (RP) of matching tetramer: P3-P1' tetramer matching the MS detected MMP2 cleavage sequence, RP_above_4.5; for corresponding MMP2 relative probability (RP): MMP9 tetramers from unique substrates, RP of same tetramer for MMP2; for MMP2 relative probability (RP): MMP2 tetramers from unique substrates, unrounded values; for avg_RP: MMP2 - no binning
[3] = MMP9, RP of matching P3-P1' tetramer, common set of MMP2-9 selectome
[4] = MMP9, RP of the P3-P1' tetramer matching the MS detected cleavage, RP above 4.7, substrate phage display with NGS
[5] = RP of matching tetramer, common MMP2-9 selectome, RP above KL threshold
[6] = MMP2, RP of matching P3-P1' tetramer, common set of MMP2-9 selectome, RP above KL threshold
[7] = RP of matching tetramer, common MMP2-9 selectome
[8] = RP of the P3-P1' tetramer, MMP9 substrate phage display/NGS, tetramers of physiologic MEROPS substrates common to MMP2 and MMP9
[9] = RP of the P3-P1' tetramer, MMP2 substrate phage display/NGS, tetramers of physiologic MEROPS substrates common to MMP2 and MMP9
[10] = MMP9, RP of the P3-P1' tetramer contained in the hexamer substrate (substrate phage display, NGS)
[11] = RP of the P3-P1' tetramer cluster contained in the hexamer, 200 nM MMP-2, 2 h, 37°C, two rounds of selection
[12] = RP according to MMP9, P3-P1' tetramer of unique physiologic MMP9 substrates from MEROPS
[13] = RP according to MMP2, P3-P1' tetramer of unique physiologic MMP2 substrates from MEROPS
[14] = normalized RP of matching tetramer, unique part of MMP2 selectome

## AKAL
[1]; [3]
  relative probability (RP) (acc.to MMP9): 37.29
[1]; [4]
  relative probability (RP): 37.29
[1]; [5]
  relative probability (RP) (acc.to MMP9): 37.29
[2]; [6]
  relative probability (RP) (acc.to MMP2): 22.96
[2]
  relative probability (RP) of matching tetramer: 22.96
[2]; [7]
  relative probability (RP) (acc.to MMP2): 22.96

## AKAQ
[1]
  MMP9 relative probability (RP): 0.8414
[2]
  corresponding MMP2 relative probability (RP): 5.884

## AKNL
[1]; [3]
  relative probability (RP) (acc.to MMP9): 32.82
[1]; [4]
  relative probability (RP): 32.82
[1]; [5]
  relative probability (RP) (acc.to MMP9): 32.82
[2]; [6]
  relative probability (RP) (acc.to MMP2): 16.7
[2]
  relative probability (RP) of matching tetramer: 16.7
[2]; [7]
  relative probability (RP) (acc.to MMP2): 16.7

## ALYL
[1]
  MMP9 relative probability (RP): 1.807
[2]
  corresponding MMP2 relative probability (RP): 5.662

## AMFL
[1]
  MMP9 relative probability (RP): 1.089
[2]
  corresponding MMP2 relative probability (RP): 15.1166

## AMPM
[1]; [3]
  relative probability (RP) (acc.to MMP9): 26.95
[1]; [4]
  relative probability (RP): 26.95
[1]; [5]
  relative probability (RP) (acc.to MMP9): 26.95
[2]; [6]
  relative probability (RP) (acc.to MMP2): 8.51
[2]
  relative probability (RP) of matching tetramer: 8.51
[2]; [7]
  relative probability (RP) (acc.to MMP2): 8.51

## ANPV
[1]; [8]
  relative probability (RP) (acc.to MMP9): 0.33
[2]; [9]
  relative probability (RP) (acc.to MMP2): 0.04

## APALWI
[1]; [10]
  relative probability (RP): 27.3829
[2]; [11]
  relative probability (RP): 24.3606

## APGF
[1]; [8]
  relative probability (RP) (acc.to MMP9): 0.56
[2]; [9]
  relative probability (RP) (acc.to MMP2): 0.64

## APGL
[1]
  corresponding MMP9 relative probability (RP): 3.776
[1]; [12]
  Relative probability (RP) rank: 6833
  relative probability (RP): 3.78
[1]; [8]
  relative probability (RP) (acc.to MMP9): 3.78
[2]
  MMP2 relative probability (RP): 7.849
[2]; [13]
  Relative probability (RP) rank: 5899
  relative probability (RP): 7.85
[2]; [9]
  relative probability (RP) (acc.to MMP2): 7.85

## APGN
[1]; [8]
  relative probability (RP) (acc.to MMP9): 2.38
[2]; [9]
  relative probability (RP) (acc.to MMP2): 3.62

## ARAY
[1]; [3]
  relative probability (RP) (acc.to MMP9): 36.14
[1]; [4]
  relative probability (RP): 36.14
[1]; [5]
  relative probability (RP) (acc.to MMP9): 36.14
[2]; [6]
  relative probability (RP) (acc.to MMP2): 20.14
[2]
  relative probability (RP) of matching tetramer: 20.14
[2]; [7]
  relative probability (RP) (acc.to MMP2): 20.14

## ARGI
[1]; [4]
  relative probability (RP): 31.4
[1]; [5]
  relative probability (RP) (acc.to MMP9): 31.4
[2]; average relative probability (RP) of the P3-P1' tetramer, redundant tetramers have been averaged out
  avg_RP: 21.2616
[2]; [7]
  relative probability (RP) (acc.to MMP2): 21.26

## ARHYKS
[1]; [10]
  relative probability (RP): 23.6532
[2]; [11]
  relative probability (RP): 10.2998

## ASDY
[1]; [8]
  relative probability (RP) (acc.to MMP9): 0.38
[2]; [9]
  relative probability (RP) (acc.to MMP2): 0.78

## ATPY
[1]; [3]
  relative probability (RP) (acc.to MMP9): 9.04
[1]; [4]
  relative probability (RP): 9.04
[1]; [5]
  relative probability (RP) (acc.to MMP9): 9.04
[2]; [6]
  relative probability (RP) (acc.to MMP2): 12.49
[2]
  relative probability (RP) of matching tetramer: 12.49
[2]; [7]
  relative probability (RP) (acc.to MMP2): 12.49

## DGPVSF
[1]; [10]
  relative probability (RP): 25.1636
[2]; [11]
  relative probability (RP): 24.4524

## DSPQNL
[1]; [10]
  relative probability (RP): 46.8593
[2]; [11]
  relative probability (RP): 32.7851

## EGPAGL
[1]; [10]
  relative probability (RP): 47.2274
[2]; [11]
  relative probability (RP): 36.0156

## EMRL
[1]
  MMP9 relative probability (RP): 0.2922
[2]
  corresponding MMP2 relative probability (RP): 11.559

## EPKPLL
[1]; [10]
  relative probability (RP): 48.2599
[2]; [11]
  relative probability (RP): 33.5622

## EPVSLA
[1]; [10]
  relative probability (RP): 42.3557
[2]; [11]
  relative probability (RP): 32.502

## ETPRPW
[1]; [10]
  relative probability (RP): 41.1124
[2]; [11]
  relative probability (RP): 32.1109

## EVPQAL
[1]; [10]
  relative probability (RP): 48.457
[2]; [11]
  relative probability (RP): 34.4508

## FKNI
[1]; [8]
  relative probability (RP) (acc.to MMP9): 0.09
[2]; [9]
  relative probability (RP) (acc.to MMP2): 0.14

## FSPL
[1]
  corresponding MMP9 relative probability (RP): 1.083
[2]
  MMP2 relative probability (RP): 14.7799
[2]; [13]
  Relative probability (RP) rank: 3161
  relative probability (RP): 14.78

## GEPFEL
[1]; [10]
  relative probability (RP): 44.9497
[2]; [11]
  relative probability (RP): 15.9169

## GEPRGQ
[1]; [10]
  relative probability (RP): 42.1179
[2]; [11]
  relative probability (RP): 29.4864

## GKPVSM
[1]; [10]
  relative probability (RP): 41.2029
[2]; [11]
  relative probability (RP): 30.0644

## GLSL
[1]; [8]
  relative probability (RP) (acc.to MMP9): 4.42
[2]; [9]
  relative probability (RP) (acc.to MMP2): 0.18

## GPAGIR
[1]; [10]
  relative probability (RP): 45.1083
[2]; [11]
  relative probability (RP): 33.3207

## GPALSY
[1]; [10]
  relative probability (RP): 25.6531
[2]; [11]
  relative probability (RP): 14.6475

## GPARPY
[1]; [10]
  relative probability (RP): 36.8874
[2]; [11]
  relative probability (RP): 20.5004

## GPEGMK
[1]; [10]
  relative probability (RP): 31.8598
[2]; [11]
  relative probability (RP): 19.9209

## GPHGYK
[1]; [10]
  relative probability (RP): 44.1642
[2]; [11]
  relative probability (RP): 24.9359

## GPKG
[1]; [8]
  relative probability (RP) (acc.to MMP9): 2.81
[2]; [9]
  relative probability (RP) (acc.to MMP2): 1.49

## GPKGFR
[1]; [10]
  relative probability (RP): 42.0715
[2]; [11]
  relative probability (RP): 30.2308

## GPRGLK
[1]; [10]
  relative probability (RP): 47.3825
[2]; [11]
  relative probability (RP): 35.2511

## GPRYLM
[1]; [10]
  relative probability (RP): 44.5304
[2]; [11]
  relative probability (RP): 30.5447

## GQPMNL
[1]; [10]
  relative probability (RP): 48.9575
[2]; [11]
  relative probability (RP): 32.5586

## GRGL
[1]; [3]
  relative probability (RP) (acc.to MMP9): 11.45
[1]; [4]
  relative probability (RP): 11.45
[1]; [5]
  relative probability (RP) (acc.to MMP9): 11.45
[2]; average relative probability of the tetramer, redundant tetramers averaged out
  avg_RP: 4.9808
[2]; [6]
  relative probability (RP) (acc.to MMP2): 4.98
[2]
  relative probability (RP) of matching tetramer: 4.98
[2]; [7]
  relative probability (RP) (acc.to MMP2): 4.98

## GSAL
[1]; RP of matching tetramer, unique part of MMP2 selectome
  relative probability (RP) (acc.to MMP9): 2.8
[1]; [14]
  normalized RP - MMP9: 0.05346
[2]
  relative probability (RP) of matching tetramer: 9.27
[2]; RP of matching tetramer, unique part of MMP2 selectome, RP above KL threshold
  relative probability (RP) (acc.to MMP2): 9.27
[2]; [14]
  normalized RP - MMP2: 0.2538

## GSSY
[1]; [8]
  relative probability (RP) (acc.to MMP9): 0.37
[2]; [9]
  relative probability (RP) (acc.to MMP2): 0.73

## HARL
[1]
  corresponding MMP9 relative probability (RP): 0.3259
[2]
  MMP2 relative probability (RP): 17.6482
[2]; [13]
  Relative probability (RP) rank: 2341
  relative probability (RP): 17.65

## HFFK
[1]; [8]
  relative probability (RP) (acc.to MMP9): 0.27
[2]; [9]
  relative probability (RP) (acc.to MMP2): 0.14
